Results on two sequences are retold here after US9791436B2, “Protease-based biosensor” (priority 2012, dated 2017).

Experiment [1] deals with T1, Erbin-PDZ-FN affinity clamp complex (Homo sapiens, UniProt Q96RT1).
T1 construct: made in house; host or cells: E. coli BL21(DE3)-RIL
Nature of the experiment: Induction of the TVMV-based allosteric receptor by PDZ ligands of different affinity. The experiment is classed as biochemical. Conditions: FIG. 11C. As to the method:
The maximum induction ratio of TVMV-based allosteric receptors (500 nM) was measured in a similar fashion in the presence or absence of the PDZ ligand peptide-1 ([…]) at a final concentration of 10 μM in protease assay buffer consisting of 50 mM Tris-HCl, 1 M NaCl, 1 mM DTT and 0.5 mM EDTA, pH 8.0. The reaction was generally initiated following the addition of TVMV substrate peptide (Table 1) to a final concentration of 10 μM.
A set of different allosterically regulated proteases was constructed by varying the composition of the three different linkers connecting TVMV to the Erbin-PDZ domain (Linker 1), the Erbin-PDZ domain to the FN3 domain (Linker 2) and the FN3 domain to the AI-domain (Linker 3). […] The largest modulation was effected by progressively shortening and lengthening linker L1.

The target in experiment [2] is ePDZ-b1. The note with it: cited from earlier work.
Chain of ePDZ-b1 (as listed by the source): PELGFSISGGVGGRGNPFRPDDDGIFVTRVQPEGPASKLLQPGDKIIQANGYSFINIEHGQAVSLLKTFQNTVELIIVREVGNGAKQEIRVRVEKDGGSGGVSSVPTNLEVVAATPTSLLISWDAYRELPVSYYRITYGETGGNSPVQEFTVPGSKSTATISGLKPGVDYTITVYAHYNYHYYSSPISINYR

T1 sequence (Q96RT1 with tags, fused parts or gaps limits assumed): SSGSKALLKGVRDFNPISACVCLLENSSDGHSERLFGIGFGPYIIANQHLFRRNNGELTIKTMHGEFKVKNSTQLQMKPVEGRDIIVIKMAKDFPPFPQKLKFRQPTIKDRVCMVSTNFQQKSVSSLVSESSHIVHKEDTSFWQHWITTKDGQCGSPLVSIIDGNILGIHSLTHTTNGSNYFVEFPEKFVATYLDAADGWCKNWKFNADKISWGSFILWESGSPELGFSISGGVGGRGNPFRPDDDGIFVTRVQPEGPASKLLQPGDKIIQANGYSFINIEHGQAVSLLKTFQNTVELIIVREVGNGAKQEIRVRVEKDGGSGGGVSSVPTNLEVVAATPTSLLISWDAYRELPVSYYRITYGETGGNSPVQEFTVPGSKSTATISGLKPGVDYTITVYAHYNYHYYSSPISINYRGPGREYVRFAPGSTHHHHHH

By Kd is commonly meant the free concentration of one partner at which half of the binding sites on the other are occupied at equilibrium, for simple one-to-one binding. As for PQPVDSWV [PDZ-Ligand 2], the “induction of activity compared to the higher affinity PDZ peptide ligand-1” value in experiment [1] is recorded as “approximately 10 fold lower”. The Kd in experiment [2] is around 5 nM.
On to RGSIDTWV [PDZ-Ligand 1], for which, in experiment [2], the Kd is around 0.625 nM.
